Laboratory results published in ChEMBL document CHEMBL4507263, “Data for DCP probe BAY-474” (2021).

Tests used:
[1] = biological target: Tyrosine-protein kinase ITK/TSK (Homo sapiens) (UniProt Q08881); details: Compound concentration 1000.0 nM
[2] = biological target: Ribosomal protein S6 kinase alpha-2 (Homo sapiens) (UniProt Q15349); details: Compound concentration 1000.0 nM
Rattus norvegicus [3] = species on record: Rattus norvegicus; details: Compound concentration 10.0 uM
[4] = biological target: Protein-tyrosine kinase 6 (Homo sapiens) (UniProt Q13882); details: Compound concentration 1000.0 nM
Chain of Protein-tyrosine kinase 6 (Homo sapiens) (Q13882 whole entry, looked up): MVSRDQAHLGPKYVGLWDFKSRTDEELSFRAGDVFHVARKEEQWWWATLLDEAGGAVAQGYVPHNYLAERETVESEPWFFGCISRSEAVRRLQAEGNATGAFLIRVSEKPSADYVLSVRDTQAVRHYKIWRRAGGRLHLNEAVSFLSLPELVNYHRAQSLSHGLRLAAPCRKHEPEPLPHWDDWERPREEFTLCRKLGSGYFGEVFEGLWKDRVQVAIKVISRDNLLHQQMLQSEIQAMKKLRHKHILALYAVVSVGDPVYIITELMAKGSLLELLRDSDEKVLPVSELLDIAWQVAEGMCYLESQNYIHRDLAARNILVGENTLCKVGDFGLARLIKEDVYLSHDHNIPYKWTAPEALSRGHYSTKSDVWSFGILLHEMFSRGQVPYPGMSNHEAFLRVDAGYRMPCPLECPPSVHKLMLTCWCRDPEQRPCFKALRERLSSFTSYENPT

[5] = biological target: Cyclin-dependent kinase 4 (Homo sapiens) (UniProt P11802); details: Compound concentration 1000.0 nM
Chain of Cyclin-dependent kinase 4 (Homo sapiens) (P11802 whole entry): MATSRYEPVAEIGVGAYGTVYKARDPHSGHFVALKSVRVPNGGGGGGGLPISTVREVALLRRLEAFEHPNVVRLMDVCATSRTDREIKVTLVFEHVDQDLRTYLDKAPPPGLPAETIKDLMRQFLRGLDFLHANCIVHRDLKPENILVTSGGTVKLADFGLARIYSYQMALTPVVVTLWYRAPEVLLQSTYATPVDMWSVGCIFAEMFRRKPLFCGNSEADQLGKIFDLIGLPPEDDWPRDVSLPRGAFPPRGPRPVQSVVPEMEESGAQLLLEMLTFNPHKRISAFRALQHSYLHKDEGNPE

[6] = biological target: GABA-A receptor; anion channel (Rattus norvegicus) (UniProt O09028+P15431+P18506+P18508+P19969+P20236+P23574+P23576+P28471+P28473+P30191+P62813+P63079+P63138+Q91ZM7+Q9ES14); details: Compound concentration 10.0 uM
[7] = biological target: Cyclin-dependent kinase 18 (Homo sapiens) (UniProt Q07002); details: Compound concentration 1000.0 nM
[8] = biological target: Cyclin-dependent kinase 4 (Homo sapiens) (UniProt P11802); details: Compound concentration 1000.0 nM; remark: listed apart in the source
[9] = biological target: Tyrosine-protein kinase HCK (Homo sapiens) (UniProt P08631); details: Compound concentration 1000.0 nM
Chain of Tyrosine-protein kinase HCK (Homo sapiens) (P08631 2-526 limits assumed): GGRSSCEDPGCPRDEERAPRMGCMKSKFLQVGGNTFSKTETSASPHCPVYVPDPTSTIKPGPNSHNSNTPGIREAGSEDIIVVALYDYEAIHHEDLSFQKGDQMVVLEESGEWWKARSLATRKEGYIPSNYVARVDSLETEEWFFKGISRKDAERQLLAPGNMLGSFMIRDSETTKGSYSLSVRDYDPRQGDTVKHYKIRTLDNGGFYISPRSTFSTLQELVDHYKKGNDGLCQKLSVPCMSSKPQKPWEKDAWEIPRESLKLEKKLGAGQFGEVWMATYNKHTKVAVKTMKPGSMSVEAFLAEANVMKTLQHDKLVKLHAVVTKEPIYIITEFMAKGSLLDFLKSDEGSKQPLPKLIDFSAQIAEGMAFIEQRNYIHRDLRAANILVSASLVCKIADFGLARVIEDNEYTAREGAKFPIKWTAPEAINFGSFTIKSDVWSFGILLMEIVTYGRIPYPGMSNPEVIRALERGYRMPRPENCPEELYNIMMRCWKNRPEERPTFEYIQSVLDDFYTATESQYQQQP

[10] = biological target: Dual specificity mitogen-activated protein kinase kinase 5 (Homo sapiens) (UniProt Q13163); details: Compound concentration 1000.0 nM
[11] = biological target: Phosphatidylinositol 4,5-bisphosphate 3-kinase catalytic subunit alpha isoform (Homo sapiens) (UniProt P42336); details: Compound concentration 1000.0 nM
[12] = system: Tyrosine-protein kinase ABL1 (Homo sapiens), P00519 [T315I]; details: Compound concentration 1000.0 nM
[13] = biological target: Rho-associated protein kinase 2 (Homo sapiens) (UniProt O75116); details: Compound concentration 1000.0 nM
[14] = biological target: Tyrosine-protein kinase JAK1 (Homo sapiens) (UniProt P23458); details: Compound concentration 1000.0 nM
[15] = biological target: Phosphatidylinositol 4-phosphate 3-kinase C2 domain-containing subunit beta (Homo sapiens) (UniProt O00750); details: Compound concentration 1000.0 nM
[16] = biological target: BDNF/NT-3 growth factors receptor (Homo sapiens) (UniProt Q16620); details: Compound concentration 1000.0 nM
[17] = system: Phosphatidylinositol 4,5-bisphosphate 3-kinase catalytic subunit alpha isoform (Homo sapiens), P42336 [H1047Y]; details: Compound concentration 1000.0 nM
[18] = biological target: Serine/threonine-protein kinase 32B (Homo sapiens) (UniProt Q9NY57); details: Compound concentration 1000.0 nM
[19] = biological target: 5'-AMP-activated protein kinase catalytic subunit alpha-1 (Homo sapiens) (UniProt Q13131); details: Compound concentration 1000.0 nM
[20] = biological target: Cyclin-dependent kinase 5 (Homo sapiens) (UniProt Q00535); details: Compound concentration 1000.0 nM
[21] = biological target: Dual specificity protein kinase TTK (Homo sapiens) (UniProt P33981); details: Compound concentration 1000.0 nM
[22] = biological target: Serine/threonine-protein kinase Nek9 (Homo sapiens) (UniProt Q8TD19); details: Compound concentration 1000.0 nM
[23] = biological target: Inhibitor of nuclear factor kappa-B kinase subunit alpha (Homo sapiens) (UniProt O15111); details: Compound concentration 1000.0 nM
[24] = biological target: Serine/threonine-protein kinase PAK 1 (Homo sapiens) (UniProt Q13153); details: Compound concentration 1000.0 nM
Chain of Serine/threonine-protein kinase PAK 1 (Homo sapiens) (Q13153 whole entry): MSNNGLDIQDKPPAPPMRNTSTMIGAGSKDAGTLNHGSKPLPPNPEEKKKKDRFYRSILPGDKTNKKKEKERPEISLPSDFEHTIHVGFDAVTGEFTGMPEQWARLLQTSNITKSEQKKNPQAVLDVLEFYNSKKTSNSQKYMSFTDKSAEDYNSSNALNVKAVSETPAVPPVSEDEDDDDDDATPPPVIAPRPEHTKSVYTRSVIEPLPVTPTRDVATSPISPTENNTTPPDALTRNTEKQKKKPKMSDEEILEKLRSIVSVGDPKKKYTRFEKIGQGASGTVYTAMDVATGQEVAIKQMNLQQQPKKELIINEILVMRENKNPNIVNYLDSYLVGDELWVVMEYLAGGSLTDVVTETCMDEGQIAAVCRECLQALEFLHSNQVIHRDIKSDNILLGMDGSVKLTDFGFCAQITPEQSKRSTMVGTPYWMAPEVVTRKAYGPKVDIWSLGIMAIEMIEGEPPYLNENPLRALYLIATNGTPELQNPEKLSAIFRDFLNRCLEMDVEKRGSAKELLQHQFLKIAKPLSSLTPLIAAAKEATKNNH

[25] = biological target: Dual specificity protein kinase CLK1 (Homo sapiens) (UniProt P49759); details: Compound concentration 1000.0 nM
Chain of Dual specificity protein kinase CLK1 (Homo sapiens) (P49759 whole entry, looked up): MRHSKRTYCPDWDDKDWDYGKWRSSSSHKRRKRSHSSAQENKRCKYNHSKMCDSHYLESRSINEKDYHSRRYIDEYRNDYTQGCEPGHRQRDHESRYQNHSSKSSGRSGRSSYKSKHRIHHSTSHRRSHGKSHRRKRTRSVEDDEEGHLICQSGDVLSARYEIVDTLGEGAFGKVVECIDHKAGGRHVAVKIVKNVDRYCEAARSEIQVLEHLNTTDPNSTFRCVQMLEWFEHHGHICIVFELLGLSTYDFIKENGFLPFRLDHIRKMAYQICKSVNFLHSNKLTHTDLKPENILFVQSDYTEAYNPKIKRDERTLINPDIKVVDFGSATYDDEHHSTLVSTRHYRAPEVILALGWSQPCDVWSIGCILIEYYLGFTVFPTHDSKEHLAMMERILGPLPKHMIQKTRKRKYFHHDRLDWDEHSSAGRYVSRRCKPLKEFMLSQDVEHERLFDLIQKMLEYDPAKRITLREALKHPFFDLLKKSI

[26] = biological target: Myosin light chain kinase, smooth muscle (Homo sapiens) (UniProt Q15746); details: Compound concentration 1000.0 nM
Rattus norvegicus [27] = species on record: Rattus norvegicus; details: Compound concentration 10.0 uM; remark: listed apart in the source
[28] = biological target: Tyrosine-protein kinase HCK (Homo sapiens) (UniProt P08631); experiment: Hck (h) Millipore kinase activity assay; details: Compound concentration 1.0 uM
Rattus norvegicus [29] = species on record: Rattus norvegicus; experiment: Inhibition of Rolipram at 10 µM in the Eurofins-Panlabs radioligand binding assay (Eurofins_assay_268811); type: protein assay; parameters: ligand concentration 1.8 nM; details: Compound concentration 10.0 uM
[30] = biological target: PAS domain-containing serine/threonine-protein kinase (Homo sapiens) (UniProt Q96RG2); experiment: PASK (h) Millipore kinase activity assay; details: Compound concentration 1.0 uM
Chain of PAS domain-containing serine/threonine-protein kinase (Homo sapiens) (Q96RG2 whole entry, the tested form may be a part): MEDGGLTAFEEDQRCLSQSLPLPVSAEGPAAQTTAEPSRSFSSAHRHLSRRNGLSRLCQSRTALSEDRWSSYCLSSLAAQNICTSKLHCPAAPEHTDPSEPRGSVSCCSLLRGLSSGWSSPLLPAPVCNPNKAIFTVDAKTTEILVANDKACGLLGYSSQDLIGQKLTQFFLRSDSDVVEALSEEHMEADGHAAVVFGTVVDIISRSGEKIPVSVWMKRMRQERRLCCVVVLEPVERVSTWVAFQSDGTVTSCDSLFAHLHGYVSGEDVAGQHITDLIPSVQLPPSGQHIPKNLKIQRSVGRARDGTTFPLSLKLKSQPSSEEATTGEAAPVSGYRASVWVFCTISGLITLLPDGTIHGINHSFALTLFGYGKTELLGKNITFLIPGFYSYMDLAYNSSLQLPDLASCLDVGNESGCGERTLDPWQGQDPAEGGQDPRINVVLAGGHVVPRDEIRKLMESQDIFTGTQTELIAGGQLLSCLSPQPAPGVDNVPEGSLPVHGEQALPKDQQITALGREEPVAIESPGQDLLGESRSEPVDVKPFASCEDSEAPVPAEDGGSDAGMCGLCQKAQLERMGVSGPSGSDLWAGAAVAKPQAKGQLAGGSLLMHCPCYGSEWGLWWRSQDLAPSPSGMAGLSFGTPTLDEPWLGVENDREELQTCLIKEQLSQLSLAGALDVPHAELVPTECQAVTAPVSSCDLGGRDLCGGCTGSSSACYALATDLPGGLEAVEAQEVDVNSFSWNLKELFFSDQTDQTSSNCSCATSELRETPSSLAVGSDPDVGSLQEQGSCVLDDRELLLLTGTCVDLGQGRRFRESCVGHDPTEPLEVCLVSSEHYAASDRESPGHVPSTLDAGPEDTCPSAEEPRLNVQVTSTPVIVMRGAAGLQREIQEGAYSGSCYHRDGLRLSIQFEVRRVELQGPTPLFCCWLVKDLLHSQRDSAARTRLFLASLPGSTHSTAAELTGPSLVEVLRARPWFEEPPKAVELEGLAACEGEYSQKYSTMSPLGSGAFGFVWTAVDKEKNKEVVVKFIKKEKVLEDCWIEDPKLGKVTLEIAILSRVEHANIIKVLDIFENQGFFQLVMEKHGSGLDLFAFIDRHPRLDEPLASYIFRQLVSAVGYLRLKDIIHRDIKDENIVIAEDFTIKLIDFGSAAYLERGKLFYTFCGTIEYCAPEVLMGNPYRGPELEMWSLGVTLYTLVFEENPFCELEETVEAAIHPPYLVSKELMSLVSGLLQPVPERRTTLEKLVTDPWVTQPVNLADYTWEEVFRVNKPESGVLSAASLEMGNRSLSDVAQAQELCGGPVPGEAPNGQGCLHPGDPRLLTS

[31] = biological target: Serine/threonine-protein kinase TAO2 (Homo sapiens) (UniProt Q9UL54); experiment: TAO2 (h) Millipore kinase activity assay; details: Compound concentration 1.0 uM
[32] = biological target: Tyrosine-protein kinase receptor UFO (Homo sapiens) (UniProt P30530); experiment: Axl (h) Millipore kinase activity assay; details: Compound concentration 1.0 uM
Chain of Tyrosine-protein kinase receptor UFO (Homo sapiens) (P30530 whole entry): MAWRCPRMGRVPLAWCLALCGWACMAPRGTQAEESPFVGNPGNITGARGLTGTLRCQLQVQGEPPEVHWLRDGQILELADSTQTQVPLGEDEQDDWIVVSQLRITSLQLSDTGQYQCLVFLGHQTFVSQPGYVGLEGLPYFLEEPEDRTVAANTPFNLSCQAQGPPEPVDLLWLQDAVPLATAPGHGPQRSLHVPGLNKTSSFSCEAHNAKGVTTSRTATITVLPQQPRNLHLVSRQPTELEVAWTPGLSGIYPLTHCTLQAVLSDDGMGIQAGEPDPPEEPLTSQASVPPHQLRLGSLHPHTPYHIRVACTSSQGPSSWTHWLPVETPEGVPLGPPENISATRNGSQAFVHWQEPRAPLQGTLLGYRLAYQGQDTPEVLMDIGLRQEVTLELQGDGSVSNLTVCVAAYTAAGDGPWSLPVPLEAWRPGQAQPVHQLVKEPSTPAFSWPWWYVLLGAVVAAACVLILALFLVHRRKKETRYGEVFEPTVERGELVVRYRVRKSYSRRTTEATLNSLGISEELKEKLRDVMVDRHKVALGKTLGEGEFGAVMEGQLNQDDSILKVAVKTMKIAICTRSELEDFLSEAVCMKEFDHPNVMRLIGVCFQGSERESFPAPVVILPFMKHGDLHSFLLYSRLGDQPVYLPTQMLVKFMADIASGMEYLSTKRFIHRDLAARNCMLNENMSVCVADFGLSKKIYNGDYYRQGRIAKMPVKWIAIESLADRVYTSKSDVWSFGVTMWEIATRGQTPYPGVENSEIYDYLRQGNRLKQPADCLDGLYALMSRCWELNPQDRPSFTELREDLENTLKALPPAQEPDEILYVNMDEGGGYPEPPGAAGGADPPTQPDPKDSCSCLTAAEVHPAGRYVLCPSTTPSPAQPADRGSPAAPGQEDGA

[33] = biological target: Cysteinyl leukotriene receptor 1 (Homo sapiens) (UniProt Q9Y271); experiment: Inhibition of Leukotriene, Cysteinyl CysLT1 at 10 µM in the Eurofins-Panlabs radioligand binding assay (Eurofins_assay_250460); parameters: ligand concentration 0.3 nM, non-specific ligand with concentration 0.3 µM Leukotriene D4, incubation time 30 min, incubation temperature 25 °C; details: Compound concentration 10.0 uM
[34] = biological target: Protein kinase C eta type (Homo sapiens) (UniProt P24723); experiment: PKCeta (h) Millipore kinase activity assay; details: Compound concentration 1.0 uM
Oryctolagus cuniculus = species on record: Oryctolagus cuniculus; experiment: Inhibition of Purinergic P2X at 10 µM in the Eurofins-Panlabs radioligand binding assay (Eurofins_assay_268700); type: protein assay; details: Compound concentration 10.0 uM
[35] = biological target: Alpha-1A adrenergic receptor (Homo sapiens) (UniProt P35348); details: Rattus norvegicus; Compound concentration 10.0 uM
[36] = biological target: Prostaglandin E2 receptor EP4 subtype (Homo sapiens) (UniProt P35408); experiment: Inhibition of Prostanoid EP4 at 10 µM in the Eurofins-Panlabs radioligand binding assay (Eurofins_assay_268420); parameters: ligand concentration 1 nM; details: Compound concentration 10.0 uM
Chain of Prostaglandin E2 receptor EP4 subtype (Homo sapiens) (P35408 whole entry): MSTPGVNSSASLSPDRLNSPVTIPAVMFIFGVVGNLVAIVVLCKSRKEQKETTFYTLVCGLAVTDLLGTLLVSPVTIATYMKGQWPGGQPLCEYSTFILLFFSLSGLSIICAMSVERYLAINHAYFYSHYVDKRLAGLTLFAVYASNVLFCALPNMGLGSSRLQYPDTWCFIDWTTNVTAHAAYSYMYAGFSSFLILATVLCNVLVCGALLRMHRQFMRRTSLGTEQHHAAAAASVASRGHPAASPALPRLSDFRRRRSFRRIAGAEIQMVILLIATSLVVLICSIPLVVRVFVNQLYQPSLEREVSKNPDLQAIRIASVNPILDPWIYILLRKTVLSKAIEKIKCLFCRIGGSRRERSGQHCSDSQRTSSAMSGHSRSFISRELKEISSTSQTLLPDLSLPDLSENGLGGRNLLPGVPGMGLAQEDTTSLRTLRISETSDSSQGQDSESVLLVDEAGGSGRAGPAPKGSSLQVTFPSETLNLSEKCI

[37] = biological target: Histamine H1 receptor (Homo sapiens) (UniProt P35367); details: Compound concentration 10.0 uM
[38] = biological target: Maternal embryonic leucine zipper kinase (Homo sapiens) (UniProt Q14680); experiment: MELK (h) Millipore kinase activity assay; details: Compound concentration 1.0 uM
[39] = biological target: Voltage-dependent N-type calcium channel subunit alpha-1B (Homo sapiens) (UniProt Q00975); experiment: Inhibition of Calcium Channel N-Type at 10 µM in the Eurofins-Panlabs radioligand binding assay (Eurofins_assay_216000); details: Rattus norvegicus; Compound concentration 10.0 uM
[40] = biological target: Serine/threonine-protein kinase pim-2 (Homo sapiens) (UniProt Q9P1W9); experiment: Pim-2 (h) Millipore kinase activity assay; details: Compound concentration 1.0 uM
[41] = biological target: Testis-specific serine/threonine-protein kinase 2 (Homo sapiens) (UniProt Q96PF2); experiment: TSSK2 (h) Millipore kinase activity assay; details: Compound concentration 1.0 uM
[42] = biological target: Beta-2 adrenergic receptor (Homo sapiens) (UniProt P07550); details: Compound concentration 10.0 uM

CC1=C(C#N)[C@@H](c2ccc3[nH]nc(C)c3c2)C(C#N)=C(c2ccc(Cl)cc2)N1 [BAY-827]
active: inhibition (Rattus norvegicus [3]) 69.5% | residual activity [10] 49.9% | residual activity [14] 38.2% | residual activity [17] 35.8%
inactive: residual activity [1] 97.2% | residual activity [2] 100% | residual activity [4] 100% | residual activity [5] 78.8% | inhibition [6] 16.9% | residual activity [7] 100% | residual activity [8] 96.1% | residual activity [9] 100% | residual activity [11] 100% | residual activity [12] 88.1% | residual activity [13] 91.9% | residual activity [15] 100% | residual activity [16] 85.2% | residual activity [18] 100% | residual activity [19] 100% | residual activity [20] 100% | residual activity [21] 75.7% | residual activity [22] 95.6% | residual activity [23] 100% | residual activity [24] 100% | residual activity [25] 100% | residual activity [26] 100%

CC1=C(C#N)C(c2ccc3[nH]nc(C)c3c2)C(C#N)=C(C)N1 [BAY-474]
inactive: inhibition (Rattus norvegicus [27]) 1% | inhibition [28] 16% | inhibition (Rattus norvegicus [29]) 10% | inhibition [30] 19% | inhibition [31] -2% | inhibition [32] 12% | inhibition [33] 8% | inhibition [34] -3% | inhibition (Oryctolagus cuniculus) -1% | inhibition [35] 1% | inhibition [36] 19% | inhibition [37] 17.7% | inhibition [38] 26% | inhibition [39] 6% | inhibition [40] -3% | inhibition [41] -3% | inhibition [42] 4%
